According to paper PMC8445934, “Transformation of tenofovir into stable ProTide nanocrystals with long-acting pharmacokinetic profiles” (Nature Communications, 2021):
Converted amounts (≈) assume the structure as drawn. “And” between values parts separate entries of the source, which are not always exact repeats. Equal entries are not always repeated. Where two headings read alike, the source gives them in different places.

Key:
human MDM = details: for prodrug measurements (uptake) / prodrug measurements (retention): 10 uM; for prodrug measurements (uptake): replicates; for prodrug measurements (retention): MDM
Method: Human MDMs were used for in vitro formulation assessments. MDM formulation uptake and retention studies were performed in flat-bottom, 12-well plates at a density of 1.2 × 10^6 cells/well, with each treatment completed in triplicate. […] At 2, 4, and 8 h after treatment, the cells were collected, processed, and analyzed for drug content by UPLC-UV/vis as previously described[12],[13],[56],[63]. […] Then, a culture medium (without drug) was added, and a half-media volume was replaced every other day. MDMs were collected at days 1, 5, 10, 15, and 30 after treatment, and then analyzed for intracellular drug content by UPC-UV/vis. […] MDMs were then collected immediately after the 8 h treatment and analyzed by an FEI Tecnai G2 Spirit transmission electron microscope as previously described[11],[12],[14].
Intracellular TFV-DP was extracted from human MDM or rat PBMCs as follows. […] At 2, 4, and 8 h after treatment, MDM was washed with PBS to remove the excess free drug. The cells were then collected in 70% MS-grade MeOH. TFV-DP from MDM was extracted as follows. Sep-Pak QMA cartridges (360 mg, 37–55 μm; Waters, Milford, MA) were used to separate TFV-DP from TFV- and mono-phosphate counterparts. The QMA cartridges were conditioned with 10 ml of 500 mM KCl, followed by 10 ml of 5 mM KCl. The sample (200 μL) was loaded onto the cartridges and washed with 12 ml of 75 mM KCl. The triphosphate (TP) fraction was eluted with 3 ml of 500 mM KCl. The pH of the TP fraction was lowered to 4.25 by adding 45 μl ammonium acetate buffer (pH 4, 10 mM) per ml eluate, and dephosphorylated by adding one unit of type XA sweet potato acid phosphatase (Sigma-Aldrich) per ml eluate (3 μL per sample) and incubating at 37 °C for 45 min. […] Samples were then loaded onto Waters OASIS HLB cartridges (60 mg, 30 μm; Waters, Milford, MA) pre-conditioned with 3 ml 100% methanol followed by 3 ml 1% TFA to remove salts. Salts were removed from the dephosphorylated samples with 3.5 ml of 1% TFA in water, then eluted with 1.5 ml 100% methanol and evaporated under vacuum. Once dry, the residue was stored at −80 °C until UPLC–MS/MS analyses. Samples were reconstituted in 100 μL of 10% MeOH, 90% 7.5 mM ammonium bicarbonate pH 7 in LC-MS grade water.
TFV-DP: Parent TFV was generated from TFV-DP during sample preparation and then subjected to UPLC-MS/MS analyses. The UPLC-MS/MS system was comprised of a Waters ACQUITY UPLC system coupled to a Waters Xevo TQ-XS triple quadrupole mass spectrometer (Waters, Milford, MA) with electrospray ionization (ESI) source. A CSH C18 analytical column (2.1 × 100 mm, 1.7 µm) equipped with a guard column (Waters, Milford, MA) at 30 °C was used for analyte separation. Samples were maintained at 4 °C during analysis. […] Mobile phase A consisted of 7.5 mM ammonium bicarbonate in water (MS grade, Fisher) with pH adjusted to 7.0 with glacial acetic acid (ACS grade, Sigma). Mobile phase B was 100% methanol (MS grade, Fisher). The flow rate was 0.22 mL/min. […] B was then held at 90% for 0.4 min before returning to initial conditions. Spectra were analyzed and quantified by MassLynx software version 4.1. Quantitation was based upon drug peak area to internal standard peak area ratios.

HIV-1ADA = test: Long-term antiretroviral efficacy in MDM after single 8 h treatment (HIV-1 RT activity, p24); format: cell-based; details: for HIV-1 RT activity: MDM, 10 µM (Figure 4D)
Method: To determine long-term antiretroviral efficacy following a single treatment, MDMs were plated in flat-bottom 12-well plates at a density of 1.2 × 10^6 cells/well. […] After treatment, the cells were washed twice with PBS and cultured in a fresh culture medium without drug with half-media replacement every other day. On days 1, 5, 10, 15, 20, 25, and 30 following treatment, the cells were infected with HIV-1ADA (a macrophage-tropic viral strain) at a multiplicity of infection of 0.1 infectious particles/cell for 8 h. MDM were cultured, and media samples collected on day 10 for the measurement of HIV reverse transcriptase (RT) activity as previously described[64],[65]. Cells were fixed in 2% PFA at each time point, and expression of the HIV-1p24 antigen was determined by immunocytochemistry. […] After 4 h of viral challenge, the cells were washed with PBS and given fresh media that contained the same concentrations of drug (0.00005–5,000 nM). Cell supernatants were collected 10 days later and assayed for HIV-1 RT activity as described above. Replicate studies were performed in CEM-ss CD4+ T-cell cultures. Specifically, cells were plated in 96-well plates, centrifuged at 650 × g for 5 min, and resuspended in (0.1–1,000 nM) drug-containing media for 1 h. The subsequent challenge with HIV-1NL4–3-eGFP, cell culture, sample collection, and determination of HIV-1 RT activity were performed as previously reported[13],[15].

HIV-1NL4–3-eGFP = test: microbe, parasite or virus in culture; format: cell-based; details: for % GFP Positive: replicates
From the text: Supplementary Fi gur e 9. ProTide Biological Characterizations. […]
(1 picture or pasted object on this page, not shown here)

[1] = Prodrug chemical stability of dissociated nanoformulations in pH 2.0-10.3 buffers; format: physicochemical; details: buffers pH 2.0-10.3, 24 h
Method: The mixtures were centrifuged at 16,000 × g for 10 min. The supernatants were aspirated and stored at −80 °C until ultraperformance liquid chromatography tandem mass spectrometry (UPLC-MS/MS) analysis.

[2] = Aqueous and 1-octanol solubility (excess drug, shaking 48 h, UPLC-UV); format: physicochemical; details: for solubility at 48 h: water, thermodynamic from solid
Method: Samples were centrifuged at 20,000 × g for 10 min to separate the solubilized drug from insoluble pellet. Aqueous supernatants were frozen, lyophilized, and then resuspended in MeOH. 1-octanol supernatants were prepared for analysis by dilution in MeOH and samples analyzed for drug content by UPLC-UV (Waters Acquity H Class).

## CC(C)OC(=O)[C@H](C)N[P@](=O)(CO[C@H](C)Cn1cnc2c(N)ncnc21)Oc1ccccc1 [TAF, tenofovir alafenamide]
Human MDM; 10 μM
  time by which no drug was detectable in MDM: ≤ 24 h
Human MDM; 2 hours
  prodrug measurements (uptake): 2.762 and 0.9713 and 2.037
Human MDM; 4 hours
  prodrug measurements (uptake): 0.3098
Human MDM; 10 μM, 8 h
  Intracellular prodrug concentration: 0.38 μg/10^6 cells
Human MDM; 8 hours
  prodrug measurements (uptake): 0.3813
Human MDM; day 1, replicates
  prodrug measurements (retention): 0
Human MDM; day 5, replicates
  prodrug measurements (retention): 0
Human MDM; day 10, replicates
  prodrug measurements (retention): 0
Human MDM; day 15, replicates
  prodrug measurements (retention): 0
Human MDM; day 30, replicates
  prodrug measurements (retention): 0
HIV-1ADA; 10 μM, day 30
  viral breakthrough: complete viral breakthrough
HIV-1ADA; Human immunodeficiency virus 1, 240 h, read-out: viral inhibition
  inhibition at 10 µM: 84.5%
HIV-1ADA; challenge day 1, replicates
  HIV-1 RT activity: 1.694 % of postive control and 1.963 % of postive control and 1.344 % of postive control and 1.665 % of postive control and 1.247 % of postive control and 0.8808 % of postive control
HIV-1ADA; challenge day 5, replicates
  HIV-1 RT activity: 1.516 % of postive control and 1.942 % of postive control and 1.963 % of postive control and 1.828 % of postive control and 2.306 % of postive control and 0.4466 % of postive control
HIV-1ADA; challenge day 10, replicates
  HIV-1 RT activity: 13.8971 % of postive control and 15.2412 % of postive control and 16.845 % of postive control and 11.6649 % of postive control and 19.6336 % of postive control and 17.0654 % of postive control
HIV-1ADA; challenge day 15, replicates
  HIV-1 RT activity: 10.4755 % of postive control and 3.747 % of postive control and 7.537 % of postive control and 13.2434 % of postive control and 32.8105 % of postive control
HIV-1ADA; challenge day 30, replicates
  HIV-1 RT activity: 86.3496 % of postive control and 48.9086 % of postive control and 79.0354 % of postive control and 54.8629 % of postive control
HIV-1NL4–3-eGFP; Human immunodeficiency virus 1, CEM-SS
  EC50: 330 pM
HIV-1NL4–3-eGFP; Log Drug Concentration (uM) 0
  % GFP Positive: 0.094% and 0.243% and 0.132%
HIV-1NL4–3-eGFP; Log Drug Concentration (uM) -1
  % GFP Positive: 0.087% and 0.114% and 0.038%
HIV-1NL4–3-eGFP; Log Drug Concentration (uM) -2
  % GFP Positive: 0.071% and 0.098% (2×)
HIV-1NL4–3-eGFP; Log Drug Concentration (uM) -3
  % GFP Positive: 0.109% and 0.099% and 0.2%
HIV-1NL4–3-eGFP; Log Drug Concentration (uM) -4
  % GFP Positive: 39.441% and 35.802% and 35.047%
HIV-1NL4–3-eGFP; Log Drug Concentration (uM) -5
  % GFP Positive: 32.55% and 34.185% and 34.763%
HIV-1NL4–3-eGFP; Log Drug Concentration (uM) -6
  % GFP Positive: 38.186% and 33.243% and 31.663%
HIV-1NL4–3-eGFP; Log Drug Concentration (uM) -9
  % GFP Positive: 36.164% and 40.34% and 38.638%
HIV-1NL4–3-eGFP; Log Drug Concentration (uM) -12
  % GFP Positive: 43.7% and 40.475% and 37.429%
[1]
  hydrolytic stability across pH: hydrolytically unstable at basic pH
[2]; Figure 1C source data
  water solubility, individual replicates: 4.882
[2]; Figure 1C source data, read-out: water solubility, individual replicates
  solubility at 48 h: 6160 µg/mL (≈ 12.9 mM)
[2]; room temperature, 48 h, read-out: aqueous solubilities
  solubility at 48 h: 5520 µg/mL (≈ 11.6 mM)
